From patent publication US9676715B2, “Bis-indolic derivatives, a process for preparing the same and their uses as a drug” (UNIVERSITE JOSEPH FOURIER, priority 2011, dated 2017)
In brackets after ≈: the same amount, converted by molar mass.

Legend:
E. faecalis ATCC 29212 = assay: MIC, microdilution method (9.1); type: cell-based, Enterococcus faecalis; conditions: Enterococcus faecalis, ATCC29212, 18 h, read-out: MIC
Procedure: (§1) The microdilution method recommended by the Clinical and Laboratory Standard Institute [M07-A8, Vol. 29, No. 2] was used. The activity of indolic compounds was tested against 29 bacterial strains belonging to 17 different species and 12 different genera (Staphylococcus, Streptococcus, Enterococcus, Listeria, Bacillus, Haemophilus, Escherichia, Klebsiella, Enterobacter, Serratia, Pseudomonas, and Acinetobacter). Bacterial inocula were prepared in Mueller Hinton broth (MH2, bioMérieux, Marcy L'Etoile, France), supplemented with 10% sheep blood for fastidious species (i.e., Streptococcus pneumoniae and Haemophilus influenzae). They were dispensed in 96 well microtiter plates (5×10^5 CFU/ml of final inoculum). Indolic compounds were added to the wells as to obtain two-fold serial concentrations (0.50-128 mg/L of final concentrations). Plates were incubated at 37° C. in ambient air, or at 37° C. in 5% CO2 enriched atmosphere for fastidious species. […] Drug-free cultures served as growth controls. Cultures receiving gentamicin, ciprofloxacin or cefotaxime served as positive controls.

[1] = system: HCT116 (human colon tumor); assay: In vitro cytotoxicity; type: cell-based; conditions: HCT-116, HCT116, from 100 μM to 0.005 μM in DMSO, duplicate
S. aureus CIP 103428 = assay: MIC, microdilution method (9.1); type: cell-based, Staphylococcus aureus; conditions: Staphylococcus aureus, CIP103428, read after 18 h, read-out: MIC
Procedure: as §1

S. aureus CIP 65.6 = assay: MIC, microdilution method (9.1); type: cell-based, Staphylococcus aureus; conditions: Staphylococcus aureus, CIP65, read after 18 h, read-out: MIC
Procedure: as §1

[2] = system: S. aureus ATCC 106414 (VISA); assay: MIC, microdilution method (9.1); type: cell-based, Staphylococcus aureus; conditions: Staphylococcus aureus, read after 18 h, read-out: MIC
Procedure: as §1

S. aureus ATCC 29213 = assay: MIC, microdilution method (9.1); type: cell-based, Staphylococcus aureus; conditions: Staphylococcus aureus, ATCC29213, read after 18 h, read-out: MIC
Procedure: as §1

S. aureus ATCC 6538 = assay: MIC, microdilution method (9.1); type: cell-based, Staphylococcus aureus; conditions: Staphylococcus aureus, ATCC6538, read after 18 h, read-out: MIC
Procedure: as §1

[3] = system: S. aureus ATCC 33592 (MRSA); assay: MIC, microdilution method (9.1); type: cell-based, Staphylococcus aureus; conditions: Staphylococcus aureus, read after 18 h, read-out: MIC
Procedure: as §1

S. aureus ATCC 9144 = assay: MIC, microdilution method (9.1); type: cell-based, Staphylococcus aureus; conditions: Staphylococcus aureus, ATCC9144, read after 18 h, read-out: MIC
Procedure: as §1

S. aureus SA-1199B = assay: MIC, microdilution method (9.1); type: cell-based, Staphylococcus aureus; conditions: Staphylococcus aureus, SA1199B, 18 h
Procedure: as §1

S. aureus ATCC 25923 = assay: MIC, microdilution method (9.1); type: cell-based, Staphylococcus aureus; conditions: Staphylococcus aureus, ATCC25923, read after 18 h, read-out: MIC
Procedure: as §1

[4] = system: S. aureus CIP 65.25 (MRSA); assay: MIC, microdilution method (9.1); type: cell-based, Staphylococcus aureus; conditions: Staphylococcus aureus, read after 18 h, read-out: MIC
Procedure: as §1

[5] = system: HCT116 (human colon tumor); assay: In vitro cytotoxicity; type: cell-based; conditions: read-out: % of cellular growth inhibition; for inhibition at 10 µM: HCT-116, 10^−5 M; for inhibition at 1 µM: HCT-116, 10^−6 M
Procedure: (§2) In vitro cytotoxicity was assayed on three cell lines—KB (human mouth carcinoma), MCR5 (human lung fibroblast) and HCT116 (human colon tumor). Results are presented in table IV as % of cellular growth inhibition in presence of 10^−5 M and 10^−6 M of the tested bis-indolic derivatives.

[6] = system: MRC5 (human lung fibroblast); assay: In vitro cytotoxicity; type: cell-based; conditions: read-out: % of cellular growth inhibition; for inhibition at 10 µM: 10^−5 M; for inhibition at 1 µM: 10^−6 M
Procedure: as §2

[7] = system: KB (human mouth carcinoma); assay: In vitro cytotoxicity; type: cell-based; conditions: read-out: % of cellular growth inhibition; for inhibition at 10 µM: 10^−5 M; for inhibition at 1 µM: 10^−6 M
Procedure: as §2

[8] = system: S. agalactiae (group B) ATCC 12400; assay: MIC, microdilution method (9.1); type: cell-based, Streptococcus agalactiae; conditions: Streptococcus agalactiae, ATCC12400, 18 h, read-out: MIC
Procedure: as §1

S. pneumoniae ATCC 6303 = assay: MIC, microdilution method (9.1); type: cell-based, Streptococcus pneumoniae; conditions: Streptococcus pneumoniae, ATCC6303, 10% sheep blood, 5% CO2, 18 h, read-out: MIC
Procedure: as §1

[9] = system: S. epidermidis ATCC 12228; assay: MIC, microdilution method (9.1); type: cell-based, Staphylococcus epidermidis; conditions: Staphylococcus epidermidis, ATCC12228, read after 18 h, read-out: MIC
Procedure: as §1

[10] = system: S. epidermidis CIP 103627; assay: MIC, microdilution method (9.1); type: cell-based, Staphylococcus epidermidis; conditions: Staphylococcus epidermidis, CIP103627, read after 18 h, read-out: MIC
Procedure: as §1

S. epidermidis CIP 81.55 = assay: MIC, microdilution method (9.1); type: cell-based, Staphylococcus epidermidis; conditions: Staphylococcus epidermidis, CIP81, read after 18 h, read-out: MIC
Procedure: as §1

S. mitis CIP 103335 = assay: MIC, microdilution method (9.1); type: cell-based, Streptococcus mitis; conditions: Streptococcus mitis, CIP103335, 18 h, read-out: MIC
Procedure: as §1

[11] = system: Enterobacter cloacae ATCC13047; assay: MIC, microdilution method (9.1); type: cell-based; conditions: 18 h
Procedure: as §1

[12] = system: Bacillus subtilis CIP 5262; assay: MIC, microdilution method (9.1); type: cell-based; conditions: CIP5262, 18 h, read-out: MIC
Procedure: as §1

[13] = system: Klebsiella pneumoniae API ATCC 35657; assay: MIC, microdilution method (9.1); type: cell-based; conditions: ATCC35657, 18 h, read-out: MIC
Procedure: as §1

[14] = system: Haemophilus influenzae ATCC 49766; assay: MIC, microdilution method (9.1); type: cell-based; conditions: ATCC49766; Haemophilus influenzae ATCC 49766; 10% sheep blood, 5% CO2; 18 h; read-out: MIC
Procedure: as §1

[15] = system: Pseudomonas aeruginosa CIP 5933; assay: MIC, microdilution method (9.1); type: cell-based; conditions: CIP5933, 18 h, read-out: MIC
Procedure: as §1

[16] = system: Serratia marcescens CIP 103551; assay: MIC, microdilution method (9.1); type: cell-based; conditions: CIP103551, 18 h
Procedure: as §1

[17] = system: Listeria innocua CIP 80.11; assay: MIC, microdilution method (9.1); type: cell-based; conditions: CIP80, 18 h, read-out: MIC
Procedure: as §1

[18] = system: Acinetobacter baumanii ATCC 19606; assay: MIC, microdilution method (9.1); type: cell-based; conditions: Acinetobacter baumannii, ATCC19606, 18 h, read-out: MIC
Procedure: as §1

[19] = system: Escherichia coli ATCC 25922; assay: MIC, microdilution method (9.1); type: cell-based; conditions: ATCC25922, 18 h
Procedure: as §1

S. pneumoniae ATCC 49619 = assay: MIC, microdilution method (9.1); type: cell-based; conditions: Streptococcus pneumoniae, ATCC49619, 10% sheep blood, 5% CO2, 18 h
Procedure: as §1

[20] = system: S. pyogenes (group A) CIP 104226; assay: MIC, microdilution method (9.1); type: cell-based, Streptococcus pyogenes; conditions: Streptococcus pyogenes, CIP104226, 18 h, read-out: MIC
Procedure: as §1

E. faecium CIP 54.32 = assay: MIC, microdilution method (9.1); type: cell-based, Enterococcus faecium; conditions: Enterococcus faecium, CIP54, 18 h, read-out: MIC
Procedure: as §1

SMILES | MIC (E. faecalis ATCC 29212) | MIC (S. aureus CIP 103428) | MIC (S. aureus CIP 65.6) | MIC [2] | MIC (S. aureus ATCC 29213) | MIC (S. aureus ATCC 6538) | MIC [3] | MIC (S. aureus ATCC 9144) | MIC (S. aureus SA-1199B) | MIC (S. aureus ATCC 25923) | MIC [4] | inhibition at 10 µM [5] | inhibition at 1 µM [5] | inhibition at 10 µM [6] | inhibition at 1 µM [6] | inhibition at 10 µM [7] | inhibition at 1 µM [7] | MIC [8] | MIC (S. pneumoniae ATCC 6303) | MIC [9] | also measured
CC(C)(C)OC(=O)NCC(NC(=O)c1c[nH]c2ccc(Br)cc12)c1c[nH]c2ccccc12 (stereo not shown) [Compound 3c, tert-Butyl [2-(1H-indol-3-yl)-2-(5-bromo-1H-indol-3-yl-carboxamido)ethyl]carbamate] | > 128 mg/L | 8 mg/L (≈ 16.1 µM) | 8 mg/L (≈ 16.1 µM) | 8 mg/L (≈ 16.1 µM) | 8 mg/L (≈ 16.1 µM) | 8 mg/L (≈ 16.1 µM) | 8 mg/L (≈ 16.1 µM) | 8 mg/L (≈ 16.1 µM) | 8 mg/L (≈ 16.1 µM) | 8 mg/L (≈ 16.1 µM) | 8 mg/L (≈ 16.1 µM) | 42 ± 3% | 11% | 16 ± 9% | 0% | 46 ± 8% | 0% | 64 mg/L (≈ 129 µM) | 32 mg/L (≈ 64.3 µM) | 8 mg/L (≈ 16.1 µM) | IC50 ([1]; first value): 8.02 µM; IC50 ([1]; second value): 5.43 µM; MIC [10]: 8 mg/L (≈ 16.1 µM); MIC (S. epidermidis CIP 81.55): 8 mg/L (≈ 16.1 µM); MIC (S. mitis CIP 103335): 64 mg/L (≈ 129 µM); MIC [11]: > 128 mg/L; MIC [12]: 64 mg/L (≈ 129 µM); MIC [13]: > 128 mg/L; MIC [14]: > 128 mg/L; MIC [15]: > 128 mg/L; MIC [16]: > 128 mg/L; MIC [17]: > 128 mg/L; MIC [18]: > 128 mg/L; MIC [19]: > 128 mg/L; MIC (S. pneumoniae ATCC 49619): 32 mg/L (≈ 64.3 µM); MIC [20]: 64 mg/L (≈ 129 µM); MIC (E. faecium CIP 54.32): > 128 mg/L
CC(C)(C)OC(=O)NCC(NC(=O)c1c[nH]c2cc(Br)ccc12)c1c[nH]c2ccc(Br)cc12 (stereo not shown) [Compound 3g, tert-Butyl(2-(5-bromo-1H-indol-3-yl)-2-(6-bromo-1H-indolyl-3-carboxamido)ethyl)carbamate] | > 128 mg/L | 1 mg/L (≈ 1.74 µM) | 2 mg/L (≈ 3.47 µM) | 1 mg/L (≈ 1.74 µM) | 2 mg/L (≈ 3.47 µM) | 2 mg/L (≈ 3.47 µM) | 2 mg/L (≈ 3.47 µM) | 2 mg/L (≈ 3.47 µM) | 2 mg/L (≈ 3.47 µM) | 2 mg/L (≈ 3.47 µM) | 1 mg/L (≈ 1.74 µM) | 86 ± 2% | 9% | 83 ± 10% | 0% | 98 ± 1% | 0% | 64 mg/L (≈ 111 µM) | 32 mg/L (≈ 55.5 µM) | 1 mg/L (≈ 1.74 µM) | IC50 ([1]; first value): 5.48 µM; IC50 ([1]; second value): 6.06 µM; MIC [10]: 2 mg/L (≈ 3.47 µM); MIC (S. epidermidis CIP 81.55): 2 mg/L (≈ 3.47 µM); MIC (S. mitis CIP 103335): 64 mg/L (≈ 111 µM); MIC [11]: > 128 mg/L; MIC [12]: 32 mg/L (≈ 55.5 µM); MIC [13]: > 128 mg/L; MIC [14]: 64 mg/L (≈ 111 µM); MIC [15]: > 128 mg/L; MIC [16]: > 128 mg/L; MIC [17]: 128 mg/L (≈ 222 µM); MIC [18]: > 128 mg/L; MIC [19]: > 128 mg/L; MIC (S. pneumoniae ATCC 49619): 32 mg/L (≈ 55.5 µM); MIC [20]: 64 mg/L (≈ 111 µM); MIC (E. faecium CIP 54.32): > 128 mg/L
CC(C)(C)OC(=O)NCC(NC(=O)c1c[nH]c2cc(Cl)ccc12)c1c[nH]c2ccc(Cl)cc12 (stereo not shown) [Compound 6b, tert-Butyl 2-(5-chloro-1H-indol-3-yl)-2-(6-chloro-1H-indole-3-carboxamido)ethyl carbamate] | > 128 mg/L | 4 mg/L (≈ 8.21 µM) | 4 mg/L (≈ 8.21 µM) | 4 mg/L (≈ 8.21 µM) | 4 mg/L (≈ 8.21 µM) | 4 mg/L (≈ 8.21 µM) | 4 mg/L (≈ 8.21 µM) | 4 mg/L (≈ 8.21 µM) | 4 mg/L (≈ 8.21 µM) | 4 mg/L (≈ 8.21 µM) | 4 mg/L (≈ 8.21 µM) | 97 ± 6% | 0% | 99 ± 1% | 0% | 92 ± 4% | 2% | 128 mg/L (≈ 263 µM) | 64 mg/L (≈ 131 µM) | 4 mg/L (≈ 8.21 µM) | MIC [10]: 8 mg/L (≈ 16.4 µM); MIC (S. epidermidis CIP 81.55): 4 mg/L (≈ 8.21 µM); MIC (S. mitis CIP 103335): 128 mg/L (≈ 263 µM); MIC [11]: > 128 mg/L; MIC [12]: 64 mg/L (≈ 131 µM); MIC [13]: > 128 mg/L; MIC [14]: > 128 mg/L; MIC [15]: > 128 mg/L; MIC [16]: > 128 mg/L; MIC [17]: > 128 mg/L; MIC [18]: > 128 mg/L; MIC [19]: > 128 mg/L; MIC (S. pneumoniae ATCC 49619): 64 mg/L (≈ 131 µM); MIC [20]: 128 mg/L (≈ 263 µM); MIC (E. faecium CIP 54.32): > 128 mg/L
